Results published in PubChem BioAssay (NCI).
Where “and” joins values, the source holds several entries; their conditions need not be identical. Identical values can stand only once.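 Where inhibition never reached the appropriate level, the endpoint shown equals the highest concentration tested. Otherwise, values were interpolated linearly from a five-concentration, 48-hour dose response in 96-well plates. GI50 = concentration required for 50% inhibition of growth. TGI: total growth inhibition.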

Assays:
Assay in all cases: inhibition of tumour cell growth, NCI panel, 48 h
NCI-H226 lung = tested on: NCI-H226 lung
NCI-H23 lung = tested on: NCI-H23 lung
NCI-H460 lung = tested on: NCI-H460 lung
NCI-H522 lung = tested on: NCI-H522 lung
NCI/ADR-RES ovarian = tested on: NCI/ADR-RES ovarian
OVCAR-3 ovarian = tested on: OVCAR-3 ovarian
OVCAR-4 ovarian = tested on: OVCAR-4 ovarian
OVCAR-5 ovarian = tested on: OVCAR-5 ovarian
OVCAR-8 ovarian = tested on: OVCAR-8 ovarian
PC-3 prostate = tested on: PC-3 prostate
RPMI-8226 leukemia = tested on: RPMI-8226 leukemia
RXF 393 renal = tested on: RXF 393 renal
SF-268 CNS = tested on: SF-268 CNS
SF-295 CNS = tested on: SF-295 CNS
SF-539 CNS = tested on: SF-539 CNS
SK-MEL-2 melanoma = tested on: SK-MEL-2 melanoma
SK-MEL-28 melanoma = tested on: SK-MEL-28 melanoma
SK-MEL-5 melanoma = tested on: SK-MEL-5 melanoma
SK-OV-3 ovarian = tested on: SK-OV-3 ovarian
SN12C renal = tested on: SN12C renal
SNB-19 CNS = tested on: SNB-19 CNS
SNB-75 CNS = tested on: SNB-75 CNS
SR leukemia = tested on: SR leukemia
SW-620 colon = tested on: SW-620 colon
T-47D breast = tested on: T-47D breast
TK-10 renal = tested on: TK-10 renal
U251 CNS = tested on: U251 CNS
UACC-257 melanoma = tested on: UACC-257 melanoma
UACC-62 melanoma = tested on: UACC-62 melanoma
UO-31 renal = tested on: UO-31 renal

With `CCOc1cc2ncc(C#N)c(Nc3ccc(OCc4ccccn4)c(Cl)c3)c2cc1NC(=O)/C=C/CN(C)C` the TGI (NCI-H226 lung) was 26.7 µM and > 7.67 µM, the GI50 (NCI-H23 lung) was 2.63 µM and > 4.56 µM and the TGI (NCI-H23 lung) was 22.2 µM and > 10 µM. The GI50 (NCI-H460 lung) was 1.01 µM and 0.891 µM, the TGI (NCI-H460 lung) was 2.88 µM and > 9.38 µM and the GI50 (NCI-H522 lung) was < 0.01 µM and 0.00351 µM. The TGI (NCI-H522 lung) was 0.0818 µM and 0.706 µM, the GI50 (NCI/ADR-RES ovarian) was 1.17 µM and 1.2 µM and the TGI (NCI/ADR-RES ovarian) was 4.49 µM and > 8.87 µM. For the same compound, the GI50 (OVCAR-3 ovarian) was 1.05 µM and 0.49 µM, the TGI (OVCAR-3 ovarian) was 20.2 µM and > 6.8 µM and the GI50 (OVCAR-4 ovarian) was 0.49 µM and 0.48 µM. For the same compound, the TGI (OVCAR-4 ovarian) was 2.44 µM and > 10 µM, the GI50 (OVCAR-5 ovarian) was 0.416 µM and 0.351 µM and the TGI (OVCAR-5 ovarian) was 7.82 µM and > 10 µM. The GI50 (OVCAR-8 ovarian) was 0.28 µM and 0.339 µM, the TGI (OVCAR-8 ovarian) was 1.65 µM and > 4.46 µM and the GI50 (PC-3 prostate) was 1.93 µM and 1.31 µM. The TGI (PC-3 prostate) was 8.36 µM and > 9.32 µM, the GI50 (RPMI-8226 leukemia) was 1.11 µM and 0.695 µM and the TGI (RPMI-8226 leukemia) was 4.38 µM and 3.79 µM. For the same compound, the GI50 (RXF 393 renal) was 0.421 µM, the TGI (RXF 393 renal) was 2.28 µM and the GI50 (SF-268 CNS) was 0.563 µM. The TGI (SF-268 CNS) was > 10 µM, the GI50 (SF-295 CNS) was 10.9 µM and > 4.59 µM and the TGI (SF-295 CNS) was 34.7 µM and > 10 µM. The GI50 (SF-539 CNS) was 4.24 µM and > 4.3 µM, the TGI (SF-539 CNS) was 11.5 µM and > 9.31 µM and the GI50 (SK-MEL-2 melanoma) was 0.291 µM and 0.377 µM. For the same compound, the TGI (SK-MEL-2 melanoma) was 2.51 µM and > 4.63 µM, the GI50 (SK-MEL-28 melanoma) was 1.41 µM and 2.36 µM and the TGI (SK-MEL-28 melanoma) was 2.96 µM and > 10 µM. For the same compound, the GI50 (SK-MEL-5 melanoma) was 1.14 µM and 1.82 µM, the TGI (SK-MEL-5 melanoma) was 6.21 µM and 4.02 µM and the GI50 (SK-OV-3 ovarian) was < 0.01 µM and 0.00218 µM. For the same compound, the GI50 (SN12C renal) was 0.274 µM and 0.236 µM, the TGI (SN12C renal) was 4.6 µM and > 10 µM and the GI50 (SNB-19 CNS) was 2.52 µM. For the same compound, the TGI (SNB-19 CNS) was 22.9 µM and > 10 µM, the GI50 (SNB-75 CNS) was 0.915 µM and 0.362 µM and the TGI (SNB-75 CNS) was 5.87 µM and > 5.3 µM. The GI50 (SR leukemia) was 0.413 µM, the TGI (SR leukemia) was > 3.38 µM and the GI50 (SW-620 colon) was 0.638 µM and 0.53 µM. The TGI (SW-620 colon) was 2.41 µM and 3.02 µM, the TGI (T-47D breast) was 29.7 µM and > 2.61 µM and the GI50 (TK-10 renal) was < 0.0117 µM and 0.0127 µM. The GI50 (U251 CNS) was 0.899 µM and 1.37 µM, the TGI (U251 CNS) was 2.29 µM and > 10 µM and the GI50 (UACC-257 melanoma) was 1.41 µM and > 4.55 µM. The TGI (UACC-257 melanoma) was 4.27 µM and > 10 µM, the GI50 (UACC-62 melanoma) was 1.28 µM and 0.842 µM and the TGI (UACC-62 melanoma) was 3.87 µM and > 10 µM. The GI50 (UO-31 renal) was 0.122 µM and 0.133 µM and the TGI (UO-31 renal) was 1.57 µM and 2.73 µM.
